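96-well plates; 48 h exposure; 5 concentrations. Endpoints by linear interpolation between flanking doses. Not reached: highest tested concentration assigned. GI50 marks 50% less growth. TGI denotes the concentration required for complete inhibition of growth.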

Test systems include HOP-92 NSCLC; K-562 leukemia; LOX IMVI melanoma; OVCAR-4 ovarian; PC-3 prostate; RPMI-8226 leukemia; RXF 393 renal; SK-OV-3 ovarian; SR leukemia; UACC-62 melanoma.
Assay in all cases: growth of human tumour cells (NCI), 48 h

For `OCc1ccc(N2CCc3ccccc3C2)cc1Cl`, the GI50 in the experiment with HOP-92 NSCLC was 0.0448 µM; in the experiment with K-562 leukemia it was less than 0.0224 µM; in the experiment on LOX IMVI melanoma, 31.6 µM; with OVCAR-4 ovarian, less than 0.0149 µM; in the experiment on PC-3 prostate, 17.2 µM; in the experiment on RPMI-8226 leukemia, 0.617 µM. Besides, the GI50 in the experiment on RXF 393 renal is 13.5 µM; with SK-OV-3 ovarian it was 0.754 µM; with SR leukemia, 21.9 µM; with UACC-62 melanoma, less than 0.01 µM. For the same molecule, the TGI was 9.28 µM with HOP-92 NSCLC; 19 µM with K-562 leukemia; greater than 100 µM with LOX IMVI melanoma; 0.0633 µM in the experiment with OVCAR-4 ovarian; greater than 62.3 µM in the experiment with PC-3 prostate; 87.9 µM in the experiment on RPMI-8226 leukemia. Further, the TGI in the experiment with RXF 393 renal was 28.8 µM; with SK-OV-3 ovarian, 8.95 µM; in the experiment on SR leukemia it was greater than 76.4 µM; in the experiment on UACC-62 melanoma it was 0.144 µM.

Turning to `Cc1ccc(Cl)c(Nc2ccccc2C(=O)O)c1Cl`, the GI50 in the experiment on HOP-92 NSCLC is 16.2 µM; in the experiment with K-562 leukemia it was 33.2 µM; with LOX IMVI melanoma, 18.7 µM; in the experiment on OVCAR-4 ovarian, 29.9 µM; with PC-3 prostate, 29.9 µM; in the experiment on RPMI-8226 leukemia, 26.6 µM. Also, the GI50 with RXF 393 renal is 19.8 µM; with SK-OV-3 ovarian it was 26 µM; with SR leukemia, 25.4 µM; in the experiment on UACC-62 melanoma, 16.3 µM. Also, the TGI in the experiment with HOP-92 NSCLC was 50 µM; with K-562 leukemia, greater than 100 µM; in the experiment with LOX IMVI melanoma, 44.9 µM; with OVCAR-4 ovarian it was 94.6 µM; in the experiment on PC-3 prostate it was greater than 100 µM; in the experiment on RPMI-8226 leukemia it was 80.5 µM. Besides, the TGI in the experiment with RXF 393 renal amounted to 46.8 µM; in the experiment with SK-OV-3 ovarian, 65 µM; in the experiment on SR leukemia, 78.1 µM; with UACC-62 melanoma, 32.7 µM.

Turning to `COc1cc(-c2c(C#N)c(N)nc(N3CCOCC3)c2C#N)cc(OC)c1OC`, the GI50 was 35.9 µM with HOP-92 NSCLC; greater than 100 µM with K-562 leukemia; 79.7 µM in the experiment on LOX IMVI melanoma; greater than 100 µM with OVCAR-4 ovarian; greater than 100 µM in the experiment with PC-3 prostate; greater than 100 µM with RPMI-8226 leukemia. Besides, the GI50 in the experiment with RXF 393 renal is greater than 100 µM; in the experiment with SK-OV-3 ovarian, 81.1 µM; with SR leukemia it was 13.4 µM; in the experiment with UACC-62 melanoma it was 36.9 µM. The TGI with HOP-92 NSCLC, in the experiment on K-562 leukemia, in the experiment on LOX IMVI melanoma, with OVCAR-4 ovarian, with PC-3 prostate and with RPMI-8226 leukemia was greater than 100 µM in each case. In addition, the TGI was greater than 100 µM in the experiment with RXF 393 renal, greater than 100 µM in the experiment on SK-OV-3 ovarian, 40.2 µM in the experiment with SR leukemia and greater than 100 µM in the experiment with UACC-62 melanoma.

As to `CCN(CC)C1CCC(Nc2c(C(C)=O)cnc3ccc(-c4ccc(O)c(Cl)c4)cc23)CC1` (stereo unspecified), the GI50 is 0.227 µM in the experiment on HOP-92 NSCLC; 0.125 µM with K-562 leukemia; 0.336 µM with LOX IMVI melanoma; 0.77 µM in the experiment with OVCAR-4 ovarian; 0.494 µM in the experiment with PC-3 prostate; 0.393 µM in the experiment with RPMI-8226 leukemia. In addition, the GI50 with RXF 393 renal is 0.615 µM; in the experiment on SK-OV-3 ovarian it was 0.931 µM; in the experiment with SR leukemia it was 0.195 µM; in the experiment on UACC-62 melanoma, 3.47 µM. Moreover, the TGI in the experiment on HOP-92 NSCLC is 4.27 µM; in the experiment with K-562 leukemia, 5.72 µM; in the experiment with LOX IMVI melanoma it was 1.58 µM; with OVCAR-4 ovarian, 13.6 µM; in the experiment with PC-3 prostate, greater than 44.5 µM; in the experiment with RPMI-8226 leukemia, 2.1 µM. Also, the TGI was 2.28 µM in the experiment with RXF 393 renal, greater than 44.5 µM with SK-OV-3 ovarian, 0.72 µM in the experiment with SR leukemia and 25.4 µM in the experiment with UACC-62 melanoma.

Turning to `CC(=O)Oc1ccc(/C(=C(\C)c2ccc(Cl)cc2)c2ccc(OCCN3CCCCC3)cc2)cc1`, the GI50 was 1.64 µM in the experiment with HOP-92 NSCLC; 1.21 µM in the experiment with K-562 leukemia; 1.65 µM with LOX IMVI melanoma; 1.93 µM in the experiment on OVCAR-4 ovarian; 1.74 µM in the experiment with PC-3 prostate; 2.1 µM in the experiment with RPMI-8226 leukemia. The GI50 in the experiment with RXF 393 renal was 1.46 µM; with SK-OV-3 ovarian, 2.31 µM; with SR leukemia it was 0.739 µM; in the experiment on UACC-62 melanoma, 1.86 µM. Further, the TGI in the experiment with HOP-92 NSCLC was found to be 4.42 µM; in the experiment on K-562 leukemia, 3.59 µM; with LOX IMVI melanoma it was 3.01 µM; with OVCAR-4 ovarian, 5.43 µM; in the experiment on PC-3 prostate, 3.88 µM; in the experiment on RPMI-8226 leukemia, 4.64 µM. In addition, the TGI was found to be 3 µM in the experiment with RXF 393 renal, 6.09 µM in the experiment with SK-OV-3 ovarian, 3.06 µM in the experiment on SR leukemia and 3.73 µM with UACC-62 melanoma.

With `NCOC(=O)Cc1ccc(Br)cc1`, the TGI in the experiment on HOP-92 NSCLC, with K-562 leukemia, in the experiment on LOX IMVI melanoma, in the experiment with PC-3 prostate, with RPMI-8226 leukemia and with RXF 393 renal was greater than 100 µM in each case. The TGI in the experiment with SK-OV-3 ovarian, in the experiment on SR leukemia and with UACC-62 melanoma was greater than 100 µM in each case.

On to `CC(=O)c1cc(C(=O)c2ccc3c(c2)Sc2ccccc2N3)c2cc(C)ccn12`, for which the GI50 in the experiment with HOP-92 NSCLC is greater than 100 µM; with K-562 leukemia, 0.041 µM; in the experiment on LOX IMVI melanoma, 0.0906 µM; with OVCAR-4 ovarian it was 1.29 µM; in the experiment on PC-3 prostate, 0.0506 µM; in the experiment with RPMI-8226 leukemia, 0.233 µM. Besides, the values for the GI50 with RXF 393 renal, with SK-OV-3 ovarian and in the experiment with SR leukemia were 0.0411 µM, 0.189 µM and 0.0386 µM, respectively. Further, the TGI in the experiment with HOP-92 NSCLC, in the experiment with K-562 leukemia, in the experiment with LOX IMVI melanoma, in the experiment with OVCAR-4 ovarian, in the experiment on PC-3 prostate and in the experiment with RPMI-8226 leukemia was greater than 100 µM each time. The TGI in the experiment on RXF 393 renal, in the experiment with SK-OV-3 ovarian and in the experiment on SR leukemia was greater than 100 µM each time.

Regarding `COc1ccc(C2C=C(c3ccc4c(c3)OCO4)Oc3c2c(=O)oc2ccccc32)cc1OC` (stereo unspecified), the TGI in the experiment with HOP-92 NSCLC is greater than 73.1 µM; with LOX IMVI melanoma, greater than 100 µM; in the experiment on OVCAR-4 ovarian it was greater than 100 µM; with PC-3 prostate it was greater than 100 µM; with RPMI-8226 leukemia, 5.29 µM; with RXF 393 renal, greater than 45.5 µM. Also, the TGI in the experiment on SK-OV-3 ovarian is greater than 69.6 µM; with SR leukemia, 0.594 µM; in the experiment on UACC-62 melanoma, greater than 100 µM.

The values above are taken from PubChem BioAssay (NCI).
